Measurements published in US20260102418A1, “An anti-influenza virus derivative and uses thereof” (Shijiazhuang Discovery Medicine Technology Co., Ltd., priority 2022, published 2026).

System: A/Weiss/43 (H1N1) oseltamivir-resistant strain
Test: Antiviral CPE assay in MDCK, other influenza strains
Assay type: cell-based, influenza A virus (IAV)
Details: Influenza A virus

SMILES | EC50 [nM]
[2H]C([2H])([2H])OC(=O)OCOc1c2n(ccc1=O)N([C@@H]1c3ccccc3SCc3c1ccc(F)c3F)[C@@H]1COC3(CC3)CN1C2=O [DS1837] | 1.45 ± 0.55
NC(=O)c1ncn([C@@H]2O[C@H](CO)[C@@H](O)[C@H]2O)n1 [Ribavirin, reference compound] | 30300 ± 4080
[2H]C([2H])([2H])OC(=O)OCOc1c2n(ccc1=O)N([C@@H]1c3ccccc3[Se]Cc3c1ccc(F)c3F)[C@@H]1COC3(CC3)CN1C2=O [DS1833] | 1.16 ± 0.37
COC(=O)OCOc1c2n(ccc1=O)N([C@@H]1c3ccccc3SCc3c1ccc(F)c3F)[C@@H]1COC3(CC3)CN1C2=O [Compound M42, reference compound] | 2.11 ± 0.72
O=C1c2c(OCOP(=O)(O)O)c(=O)ccn2N([C@@H]2c3ccccc3[Se]Cc3c2ccc(F)c3F)[C@@H]2COC3(CC3)CN12 [DS14915] | 1.33 ± 0.22
